This note sets out measurements from patent publication US10336762B2 (priority 2017, dated 2019).

Experiment [1] relates to TNFα. Put plainly: cells. It is filed as cell-based, human. The note with it: Homo sapiens, Monocyte, LPS-stimulated human monocytes, TNFα content; read-out: EC50 TNF.
The target in experiment [2] is IRAK4 enzyme (Homo sapiens (Human), UniProt Q9NWZ3). Put plainly: biochemical. It is filed as biochemical. The note with it: IRAK4 enzyme, TR-FRET, 500 μM ATP.

Structures are written as SMILES.

Chain of IRAK4 enzyme (Q9NWZ3 whole entry): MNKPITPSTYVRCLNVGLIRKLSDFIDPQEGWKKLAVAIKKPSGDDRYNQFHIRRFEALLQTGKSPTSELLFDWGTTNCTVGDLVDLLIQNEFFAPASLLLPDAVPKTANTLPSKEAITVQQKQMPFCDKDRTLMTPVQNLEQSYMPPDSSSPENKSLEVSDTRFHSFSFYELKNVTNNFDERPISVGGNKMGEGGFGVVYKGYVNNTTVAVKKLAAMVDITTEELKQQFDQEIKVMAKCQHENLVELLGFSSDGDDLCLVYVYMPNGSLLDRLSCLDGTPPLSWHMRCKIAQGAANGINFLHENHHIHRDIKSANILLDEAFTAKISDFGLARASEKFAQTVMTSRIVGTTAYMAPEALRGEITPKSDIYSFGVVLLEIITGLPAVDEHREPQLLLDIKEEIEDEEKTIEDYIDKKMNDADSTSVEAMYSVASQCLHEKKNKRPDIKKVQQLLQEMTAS

As usually defined, the EC50 is the concentration that produces a half-maximal response. One may read the IC50 as the concentration at which inhibition is half-maximal. The low end stands for greater potency in that assay, the high end for weaker potency in that assay. `CC(C)(O)[C@H](F)CNC(=O)c1cnc(-c2ccc3cc(C#N)cnn23)cc1N[C@@H]1CCOC[C@@H]1F` [Example 57, 6-(3-cyanopyrrolo[1,2-b]pyridazin-7-yl)-N-((R)-2-fluoro-3-hydroxy-3-methylbutyl)-4-(((3R,4R)-3-fluorotetrahydro-2H-pyran-4-yl)amino)nicotinamide]: the 50% effective concentration (EC50) in experiment [1] was determined as 46 nM. This molecule showed a 50% inhibitory concentration (IC50) in experiment [2] of under 1 nM.
For the molecule `Cn1cc(Nc2cc(-c3ccc4cc(C#N)cnn34)ncc2C(=O)NC[C@@H](F)C(C)(C)O)nn1` [Example 58, (R)-6-(3-cyanopyrrolo[1,2-b]pyridazin-7-yl)-N-(2-fluoro-3-hydroxy-3-methylbutyl)-4-((1-methyl-1H-1,2,3-triazol-4-yl)amino)nicotinamide], in experiment [1], the half-maximal effective concentration (EC50) was 91 nM. Further, the IC50 in experiment [2] is under 1 nM.
As for `CC(C)(O)[C@H](F)CNC(=O)c1cnc(-c2ccc3cc(C#N)cnn23)cc1Nc1cnsc1` [Example 59, (R)-6-(3-cyanopyrrolo[1,2-b]pyridazin-7-yl)-N-(2-fluoro-3-hydroxy-3-methylbutyl)-4-(isothiazol-4-ylamino)nicotinamide], in experiment [1], the concentration giving a half-maximal response (EC50) is 57 nM. In experiment [2], this molecule had a half-maximal inhibitory concentration (IC50) of under 1 nM.
On to `COC(=O)C1CC2(CC(NC(=O)c3cnc(-c4ccc5cc(C#N)cnn45)cc3NC(C)C)C2)C1` (centres unmarked) [Example 60, methyl 6-(6-(3-cyano-pyrrolo[1,2-b]pyridazin-7-yl)-4-(isopropylamino)nicotinamido) spiro[3.3]heptane-2-carboxylate], for which the half-maximal effective concentration (EC50) in experiment [1] worked out at 512 nM. In experiment [2], this molecule returned an IC50 of 1 nM.
The like results for `CC(C)(O)[C@H](F)CNC(=O)c1cnc(-c2ccc3cc(C#N)cnn23)cc1N[C@@H]1CCC[C@@H](O)C1` [Example 61, 6-(3-cyanopyrrolo[1,2-b]pyridazin-7-yl)-N-((R)-2-fluoro-3-hydroxy-3-methylbutyl)-4-(((1R,3R)-3-hydroxycyclohexyl)amino) nicotinamide] were, in that order, 89 nM and under 1 nM.
As for `CO[C@@H]1CCC[C@H](Nc2cc(-c3ccc4cc(C#N)cnn34)ncc2C(=O)NC[C@@H](F)C(C)(C)O)C1` [Example 62, 6-(3-cyanopyrrolo[1,2-b]pyridazin-7-yl)-N-((R)-2-fluoro-3-hydroxy-3-methylbutyl)-4-(((1S,3R)-3-methoxycyclohexyl)amino) nicotinamide], the EC50 in experiment [1] was found to be 83 nM. This molecule also returned an IC50 in experiment [2] of under 1 nM.
The like results for `CC(C)(O)[C@H](F)CNC(=O)c1cnc(-c2ccc3cc(C#N)cnn23)cc1N[C@H]1CCC[C@H](O)C1` [Example 63, 6-(3-cyanopyrrolo[1,2-b]pyridazin-7-yl)-N-((R)-2-fluoro-3-hydroxy-3-methylbutyl)-4-(((1S,3S)-3-hydroxycyclohexyl)amino) nicotinamide] were, in that order, 57 nM and under 1 nM.
As to `CC(C)(O)[C@H](F)CNC(=O)c1cnc(-c2ccc3cc(C#N)cnn23)cc1NC1CCCCC1` [Example 64, (R)-6-(3-cyanopyrrolo[1,2-b]pyridazin-7-yl)-4-(cyclohexylamino)-N-(2-fluoro-3-hydroxy-3-methylbutyl) nicotinamide], in experiment [1], the 50% effective concentration (EC50) came to 70 nM. The molecule also displayed a concentration for half-maximal inhibition (IC50) in experiment [2] of under 1 nM.
For `CC(C)(O)[C@H](F)CNC(=O)c1cnc(-c2ccc3cc(C#N)cnn23)cc1N[C@@H]1CCC[C@H](O)C1` [Example 65, 6-(3-cyanopyrrolo[1,2-b]pyridazin-7-yl)-N-((R)-2-fluoro-3-hydroxy-3-methylbutyl)-4-(((1R,3S)-3-hydroxycyclohexyl)amino) nicotinamide], the EC50 in experiment [1] amounted to 149 nM. Besides, the IC50 in experiment [2] turned out to be 2 nM.
The like results for `CC(C)Nc1cc(-c2ccc3cc(C#N)cnn23)ncc1C(=O)NNC(=O)C(C)(C)O` [Example 66, 6-(3-cyanopyrrolo[1,2-b]pyridazin-7-yl)-N′-(2-hydroxy-2-methylpropanoyl)-4-(isopropylamino) nicotinohydrazide] were, in that order, 458 nM and 46 nM.
